Results from paper PMC6199744, “Development of Chemical Proteomics for the Folateome and Analysis of the Kinetoplastid Folateome” (ACS Infectious Diseases, 2018).
Like-named read-outs stand apart in the source and are kept apart here.

Legend:
DHFR-TS [1] = molecular target: DHFR-TS (Leishmania major, UniProt P07382); test: biochemical; details: competing free ligand 100 μM; bead = immobilized compound of the row; L. major lysate; read-out: % Inhibition of protein binding to bead, DHFR-TS, L. major
DHFR-TS (Leishmania major, UniProt P07382), sequence (P07382 whole entry): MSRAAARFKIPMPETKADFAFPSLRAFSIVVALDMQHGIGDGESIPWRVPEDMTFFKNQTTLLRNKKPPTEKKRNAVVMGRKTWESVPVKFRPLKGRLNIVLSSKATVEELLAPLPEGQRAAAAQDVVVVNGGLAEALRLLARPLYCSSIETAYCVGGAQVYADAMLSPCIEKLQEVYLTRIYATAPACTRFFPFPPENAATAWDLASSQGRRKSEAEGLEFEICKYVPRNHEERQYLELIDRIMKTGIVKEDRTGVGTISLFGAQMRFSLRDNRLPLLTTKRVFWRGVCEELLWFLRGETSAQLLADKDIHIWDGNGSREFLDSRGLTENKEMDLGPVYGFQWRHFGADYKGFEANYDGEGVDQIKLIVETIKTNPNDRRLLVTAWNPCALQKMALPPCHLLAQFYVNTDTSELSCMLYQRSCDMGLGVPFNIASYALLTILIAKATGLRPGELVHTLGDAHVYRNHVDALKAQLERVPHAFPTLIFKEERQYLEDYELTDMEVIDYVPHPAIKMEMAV

DHFR-TS [2] = molecular target: DHFR-TS (Trypanosoma brucei brucei, UniProt Q27783); test: Individual bead pull down with competing free ligand; details: competing free ligand 100 μM; bead = immobilized compound of the row; T. brucei lysate; read-out: % Inhibition of protein binding to bead, DHFR-TS, T. brucei
DHFR-TS (Trypanosoma brucei brucei, UniProt Q27783), sequence (Q27783 whole entry): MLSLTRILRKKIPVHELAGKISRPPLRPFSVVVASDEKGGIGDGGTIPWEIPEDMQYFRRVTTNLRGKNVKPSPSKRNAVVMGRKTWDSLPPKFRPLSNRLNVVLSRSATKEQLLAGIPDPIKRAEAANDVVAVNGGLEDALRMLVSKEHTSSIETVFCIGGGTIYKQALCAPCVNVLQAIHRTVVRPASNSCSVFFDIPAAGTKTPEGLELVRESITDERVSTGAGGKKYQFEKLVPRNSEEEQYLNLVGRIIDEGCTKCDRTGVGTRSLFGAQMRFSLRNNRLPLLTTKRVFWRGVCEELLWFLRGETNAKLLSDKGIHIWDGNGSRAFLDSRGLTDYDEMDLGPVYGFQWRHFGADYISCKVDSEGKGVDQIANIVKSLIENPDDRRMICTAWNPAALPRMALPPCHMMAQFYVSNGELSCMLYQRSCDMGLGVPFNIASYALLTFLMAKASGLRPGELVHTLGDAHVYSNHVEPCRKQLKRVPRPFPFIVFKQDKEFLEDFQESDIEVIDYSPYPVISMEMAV
Source text: (§1) Antifolate compounds were immobilized onto NHS-activated sepharose beads/reverse sepharose beads through amide coupling via either an amino or carboxyl group (see Figure 3). The reaction was monitored by observing the disappearance of test compound by LCMS, after which the unreacted coupling sites were capped with NHS-acetate or aminoethanol.
(§2) Folate metabolizing enzymes are not highly abundant proteins,[19],[20] potentially making their identification by MS difficult. Beads will not only pull down the low abundant high affinity binders but also attract highly abundant, low affinity binders or so-called nonspecific binders. Sometimes, the nonspecific high abundant proteins can mask true binders. The target identification approach used in this study overcomes this issue by performing competition studies. Various concentrations of the free unmodified inhibitor (test compound) were preincubated with the lysate, prior to addition of the beads derivatized with immobilized compounds. Following washing of the bound proteins from the beads and tryptic digest, the peptides were labeled using the TMTs and then pooled. Differences in peptide abundance were analyzed by fragmentation of the isotope-coded isobaric tags in the MS/MS spectra (Figure 5).[9],[11],[12],[21] While the competition experiments with test compound confirm specific binding, it is also possible that some proteins will have a stronger binding interaction with the derivatized beads than the competing test compound, due to subtle differences in the interactions between the immobilized compound and the test compound with the target protein.

PTR-1 = PTR-1 (Trypanosoma brucei brucei, UniProt O76290); test: as above; details: competing free ligand 100 μM; bead = immobilized compound of the row; T. brucei lysate; read-out: % Inhibition of protein binding to bead, PTR-1, T. brucei
PTR-1, sequence (O76290 entry or part of it): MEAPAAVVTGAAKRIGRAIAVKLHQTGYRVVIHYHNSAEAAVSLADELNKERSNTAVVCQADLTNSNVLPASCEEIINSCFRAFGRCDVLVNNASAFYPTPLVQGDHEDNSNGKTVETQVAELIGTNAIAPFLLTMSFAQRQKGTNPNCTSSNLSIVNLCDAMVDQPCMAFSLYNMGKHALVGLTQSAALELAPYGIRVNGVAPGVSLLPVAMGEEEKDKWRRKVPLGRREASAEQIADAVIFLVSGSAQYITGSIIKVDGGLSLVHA
Source text: as §1, §2

TB09.211.1690 = test: Multitargeted bead mixture competition; assay type: binding; details: free ligand 100 μM, T. brucei lysate
TB427.04.1870 = test: Multitargeted bead mixture competition; assay type: binding; details: free ligand 100 μM, T. brucei lysate
[3] = molecular target: GLYCERALDEHYDE 3-PHOSPHATE DEHYDROGENASE, GLYCOSOM (TB427.06.4300) (Trypanosoma brucei brucei, UniProt P22512); test: Multitargeted bead mixture competition; assay type: binding, T. brucei; details: multitargeted bead mixture; free ligand 100 μM; T. brucei lysate; TB427.06.4300 GAPDH
UniProt P22512, sequence (P22512 whole entry): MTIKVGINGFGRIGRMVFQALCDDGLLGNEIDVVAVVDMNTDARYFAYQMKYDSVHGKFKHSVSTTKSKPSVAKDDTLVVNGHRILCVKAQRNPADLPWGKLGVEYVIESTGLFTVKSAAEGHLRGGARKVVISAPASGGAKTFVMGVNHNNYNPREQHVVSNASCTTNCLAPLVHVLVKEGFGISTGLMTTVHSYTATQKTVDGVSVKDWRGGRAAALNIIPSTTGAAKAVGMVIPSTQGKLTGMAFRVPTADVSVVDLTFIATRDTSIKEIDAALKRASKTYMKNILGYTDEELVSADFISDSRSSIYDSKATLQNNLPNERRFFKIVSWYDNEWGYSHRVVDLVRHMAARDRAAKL

[4] = test system: PROTEIN KINASE, PUTATIVE (Tb427.03.1570); test: Multitargeted bead mixture competition; assay type: binding; details: free ligand 100 μM, T. brucei lysate
[5] = test system: PHOSPHATIDYLINOSITOL-4-PHOSPHATE 5-KINASE, PUTATIV (TB427.10.3890); test: Multitargeted bead mixture competition; assay type: binding; details: free ligand 100 μM, T. brucei lysate
[6] = test system: HYPOTHETICAL PROTEIN, CONSERVED (Tb427.10.6100); test: Multitargeted bead mixture competition; assay type: binding; details: free ligand 100 μM, T. brucei lysate
[7] = test system: SUCCINYL-COA SYNTHETASE ALPHA SUBUNIT, PUTATIVE (Tb427.03.2230); test: Multitargeted bead mixture competition; assay type: binding; details: free ligand 100 μM, T. brucei lysate
TbTS = details: recombinant protein assay; ref 6 (SI); read-out: Ki, recombinant TbTS; cited from earlier work
TB11.03.0290 = test: Multitargeted bead mixture competition; assay type: binding, T. brucei; details: multitargeted bead mixture; free ligand 100 μM; T. brucei lysate; TB11.03.0290
[8] = test system: CHOLINE KINASE (TB427TMP.18.0017); test: Multitargeted bead mixture competition; assay type: binding, T. brucei; details: multitargeted bead mixture; free ligand 100 μM; T. brucei lysate; TB427TMP.18.0017 CHOLINE KINASE
[9] = molecular target: T1, MTHFS, the 5-formyl-THF-cyclo-ligase (Homo sapiens, UniProt P49914); test: Multitargeted bead mixture competition, HeLa cell extract; assay type: binding; details: bead mixture; HeLa cell extract
T1 sequence (P49914 1-203): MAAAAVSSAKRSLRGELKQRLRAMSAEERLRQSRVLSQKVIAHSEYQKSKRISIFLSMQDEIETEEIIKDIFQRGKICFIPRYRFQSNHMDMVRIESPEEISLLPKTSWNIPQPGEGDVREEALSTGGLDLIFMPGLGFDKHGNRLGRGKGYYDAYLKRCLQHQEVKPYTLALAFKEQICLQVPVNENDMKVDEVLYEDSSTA

[10] = test system: IRON/ASCORBATE OXIDOREDUCTASE FAMILY PROTEIN, PUTA (Tb427.02.6180); test: Multitargeted bead mixture competition; assay type: binding, T. brucei; details: multitargeted bead mixture; free ligand 100 μM; T. brucei lysate; Tb427.02.6180
[11] = test system: HYPOTHETICAL PROTEIN, CONSERVED (TB427.03.2670); test: Multitargeted bead mixture competition; assay type: binding; details: free ligand 100 μM, T. brucei lysate
TB927.7.1340 = test: Multitargeted bead mixture competition; assay type: binding; details: free ligand 100 μM, T. brucei lysate
[12] = molecular target: DIHYDROFOLATE REDUCTASE-T[…] (TB427.07.5480) (Trypanosoma brucei brucei, UniProt Q27783); test: Multitargeted bead mixture competition; assay type: binding; details: multitargeted bead mixture; free ligand 100 μM; T. brucei lysate; TB427.07.5480 DHFR-TS
UniProt Q27783, sequence (Q27783 whole entry): as the sequence (Q27783 whole entry) above

[13] = test system: BRANCHED-CHAIN AMINO ACID AMINOTRANSFERASE, PUTATI (TB427.02.4590); test: Multitargeted bead mixture competition; assay type: binding; details: free ligand 100 μM, T. brucei lysate
[14] = test system: NGG1 INTERACTING FACTOR 3-LIKE (Tb427tmp.02.5000); assay type: binding; details: multitargeted bead mixture; free ligand 100 μM; T. brucei lysate; Tb427tmp.02.5000
TB927.8.6460 = test: Multitargeted bead mixture competition; assay type: binding, T. brucei; details: multitargeted bead mixture; free ligand 100 μM; T. brucei lysate; TB927.8.6460
[15] = test system: HYPOTHETICAL PROTEIN, CONSERVED (TB427.05.3680); test: Multitargeted bead mixture competition; assay type: binding; details: free ligand 100 μM, T. brucei lysate
[16] = test system: PEPTIDYL-PROLYL CIS-TRANS ISOMERASE (CYCLOPHILIN- (TB427TMP.211.1350)); test: Multitargeted bead mixture competition; assay type: binding; details: free ligand 100 μM, T. brucei lysate
PTR1 = molecular target: T2, PTR1 (Leishmania major, UniProt Q01782); test: biochemical; details: competing free ligand 100 μM; bead = immobilized compound of the row; L. major lysate; read-out: % Inhibition of protein binding to bead, PTR-1, L. major
T2 sequence (Q01782 1-288): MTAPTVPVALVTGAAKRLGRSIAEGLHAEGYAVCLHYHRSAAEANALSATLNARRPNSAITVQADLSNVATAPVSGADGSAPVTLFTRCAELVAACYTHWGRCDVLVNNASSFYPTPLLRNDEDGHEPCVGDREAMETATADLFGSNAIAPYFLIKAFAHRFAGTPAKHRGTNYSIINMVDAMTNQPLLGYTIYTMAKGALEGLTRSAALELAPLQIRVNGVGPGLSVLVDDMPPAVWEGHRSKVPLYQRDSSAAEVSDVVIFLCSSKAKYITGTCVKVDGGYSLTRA

[17] = test system: ACETYLTRANSFERASE, PUTATIVE (Tb427.08.3310); test: Multitargeted bead mixture competition; assay type: binding; details: free ligand 100 μM, T. brucei lysate
TB927.8.6760 = test: Multitargeted bead mixture competition; assay type: binding; details: free ligand 100 μM, T. brucei lysate
[18] = molecular target: PTERIDINE REDUCTASE (TB927.8.2210) (Trypanosoma brucei brucei, UniProt O76290); test: Multitargeted bead mixture competition; assay type: binding, T. brucei; details: multitargeted bead mixture; free ligand 100 μM; T. brucei lysate; TB927.8.2210 PTERIDINE REDUCTASE
PTERIDINE REDUCTASE (TB927.8.2210), sequence (O76290 entry or part of it): as the sequence (O76290 entry or part of it) above

leishmania DHCH enzyme = molecular target: leishmania DHCH enzyme; parameters: method as in ref 10 (SI); details: ref 10 (SI); cited from earlier work
human enzyme (DHCH) = molecular target: human enzyme (DHCH); parameters: method as in ref 8 (SI); details: ref 8 (SI); cited from earlier work
[19] = test system: T. brucei lysate proteins; assay type: binding, Trypanosoma brucei; details: X016405, bead mixture, free compound 100.0uM, Trypanosoma brucei

## Nc1nc(=O)c2nc(CNc3ccc(C(=O)N[C@@H](CCC(=O)O)C(=O)O)cc3)cnc2[nH]1 [Folic acid]
DHFR-TS [1]
  inhibition at 100 µM: 85%
DHFR-TS [2]
  inhibition at 100 µM: 77%
PTR-1
  inhibition at 100 µM: 92%

## Cc1ccc2nc(N)[nH]c(=O)c2c1Sc1ccncc1 [NTX, nolatrexed]
TB09.211.1690
  percentage of competition from bead binding: -7%
TB427.04.1870
  percentage of competition from bead binding: 52%
[3]
  percentage of competition from bead binding: 18%
[4]
  percentage of competition from bead binding: 11%
[5]
  percentage of competition from bead binding: 16%
[6]
  percentage of competition from bead binding: 33%
[7]
  percentage of competition from bead binding: 27%
TbTS
  Ki: 39.4 nM
TB11.03.0290
  percentage of competition from bead binding: 77%
[8]
  percentage of competition from bead binding: 34%
DHFR-TS [1]
  inhibition at 100 µM: < 50%
[9]
  binding to MTHFS: bound MTHFS
[10]
  percentage of competition from bead binding: 52%
[11]
  percentage of competition from bead binding: 11%
TB927.7.1340
  percentage of competition from bead binding: 11%
[12]
  percentage of competition from bead binding: -5%
[13]
  percentage of competition from bead binding: 9%
[14]
  percentage of competition from bead binding: 87%
TB927.8.6460
  percentage of competition from bead binding: 68%
[15]
  percentage of competition from bead binding: 38%
[16]
  percentage of competition from bead binding: 1%
PTR1
  inhibition at 100 µM: < 50%
[17]
  percentage of competition from bead binding: 29%
TB927.8.6760
  percentage of competition from bead binding: 8%
[18]
  percentage of competition from bead binding: 16%

## Nc1nc2c(c(=O)[nH]1)N1C(=O)N(c3ccc(C(=O)NC(CCC(=O)O)C(=O)O)cc3)CC1CN2 (stereo not drawn) [compound 4]
Leishmania DHCH enzyme
  Ki: 105 ± 2 nM
Human enzyme (DHCH)
  Ki: 18 ± 5 nM

## Nc1nc(O)c2c(CCc3ccccc3)c[nH]c2n1 [compound 5]
TB09.211.1690
  percentage of competition from bead binding: -34%
[19]; protein TB427.02.1850
  abundance relative to vehicle: 0.89
[19]; protein TB427.06.4760
  abundance relative to vehicle: 1.04
[19]; protein TB427.07.3620
  abundance relative to vehicle: 1.03
[19]; protein TB427.08.1880
  abundance relative to vehicle: 0.84
TB427.04.1870
  percentage of competition from bead binding: 50%
[3]
  percentage of competition from bead binding: 15%
[4]
  percentage of competition from bead binding: 60%
[5]
  percentage of competition from bead binding: 49%
[6]
  percentage of competition from bead binding: 77%
[7]
  percentage of competition from bead binding: 51%
TB11.03.0290
  percentage of competition from bead binding: 61%
[8]
  percentage of competition from bead binding: 49%
[10]
  percentage of competition from bead binding: 80%
[11]
  percentage of competition from bead binding: 54%
TB927.7.1340
  percentage of competition from bead binding: -41%
[12]
  percentage of competition from bead binding: 5%
[13]
  percentage of competition from bead binding: -22%
[14]
  percentage of competition from bead binding: 6%
TB927.8.6460
  percentage of competition from bead binding: 65%
[15]
  percentage of competition from bead binding: 70%
[16]
  percentage of competition from bead binding: -24%
[17]
  percentage of competition from bead binding: 61%
TB927.8.6760
  percentage of competition from bead binding: -71%
[18]
  percentage of competition from bead binding: 93%

## NCCCCCOc1ccc(Cc2cnc(N)nc2N)cc1 [compound 10]
DHFR-TS [2]
  inhibition at 100 µM: 84%
PTR-1
  inhibition at 100 µM: 77%

## NCCCCCOc1cccc(Cc2cnc(N)nc2N)c1 [compound 11]
DHFR-TS [2]
  inhibition at 100 µM: 87%
PTR-1
  inhibition at 100 µM: 56%

## NCCOCCOc1cccc(Cc2cnc(N)nc2N)c1 [compound 12]
DHFR-TS [2]
  inhibition at 100 µM: 79%
PTR-1
  inhibition at 100 µM: 51%

## NCCOCCOc1ccc(Cc2cnc(N)nc2N)cc1 [compound 13]
DHFR-TS [2]
  inhibition at 100 µM: 75%
PTR-1
  inhibition at 100 µM: 51%
